ChEMBL document CHEMBL1201862, “PubChem BioAssay data set” (2004)
The source made the active and inactive calls.

Experiments:
[1] = target: T1, Aryl hydrocarbon receptor (Homo sapiens, UniProt P35869); assay: Luminescence-based cell-based high throughput dose response assay for activators of the Aryl Hydrocarbon Receptor (AHR). [Related pubchem assays: 2796 (Primary screen (AHR activators in singlicate)), 2845 (Confirmation screen (AHR activators in triplicate)), 434939 (Counterscreen (PXR activators in triplicate)), 2804 (Summary (AHR activators))]; type: ADME
T1 sequence (P35869 whole entry): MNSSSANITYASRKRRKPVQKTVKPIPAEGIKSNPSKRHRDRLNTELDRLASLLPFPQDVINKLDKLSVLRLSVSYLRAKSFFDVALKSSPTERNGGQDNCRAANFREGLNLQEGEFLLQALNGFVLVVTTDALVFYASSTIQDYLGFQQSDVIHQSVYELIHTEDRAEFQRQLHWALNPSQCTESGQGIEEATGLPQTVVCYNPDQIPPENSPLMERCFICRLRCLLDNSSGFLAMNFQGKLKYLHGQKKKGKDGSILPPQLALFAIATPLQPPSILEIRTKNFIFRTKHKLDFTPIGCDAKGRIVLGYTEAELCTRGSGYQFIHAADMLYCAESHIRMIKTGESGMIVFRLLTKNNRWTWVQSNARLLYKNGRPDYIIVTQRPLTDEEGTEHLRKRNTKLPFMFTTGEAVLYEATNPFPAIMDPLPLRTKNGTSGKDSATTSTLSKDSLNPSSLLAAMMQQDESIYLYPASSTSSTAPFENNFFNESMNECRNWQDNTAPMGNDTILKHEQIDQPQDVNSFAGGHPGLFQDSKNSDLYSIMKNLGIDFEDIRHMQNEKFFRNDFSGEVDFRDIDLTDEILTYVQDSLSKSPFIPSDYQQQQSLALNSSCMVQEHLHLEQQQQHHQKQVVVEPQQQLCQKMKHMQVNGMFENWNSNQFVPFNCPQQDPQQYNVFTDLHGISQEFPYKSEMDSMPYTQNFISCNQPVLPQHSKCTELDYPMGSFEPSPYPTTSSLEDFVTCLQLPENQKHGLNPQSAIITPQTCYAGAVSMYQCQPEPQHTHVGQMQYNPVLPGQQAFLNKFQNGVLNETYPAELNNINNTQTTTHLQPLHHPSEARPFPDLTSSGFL

[2] = target: Estrogen receptor beta (Homo sapiens, UniProt Q92731);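 also: recombinant ER-beta bound to coactivator SRC1 peptide in presence of estradiol agonist; inhibitors block coactivator peptide binding and lower the FRET signal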
Estrogen receptor beta, sequence (Q92731 whole entry): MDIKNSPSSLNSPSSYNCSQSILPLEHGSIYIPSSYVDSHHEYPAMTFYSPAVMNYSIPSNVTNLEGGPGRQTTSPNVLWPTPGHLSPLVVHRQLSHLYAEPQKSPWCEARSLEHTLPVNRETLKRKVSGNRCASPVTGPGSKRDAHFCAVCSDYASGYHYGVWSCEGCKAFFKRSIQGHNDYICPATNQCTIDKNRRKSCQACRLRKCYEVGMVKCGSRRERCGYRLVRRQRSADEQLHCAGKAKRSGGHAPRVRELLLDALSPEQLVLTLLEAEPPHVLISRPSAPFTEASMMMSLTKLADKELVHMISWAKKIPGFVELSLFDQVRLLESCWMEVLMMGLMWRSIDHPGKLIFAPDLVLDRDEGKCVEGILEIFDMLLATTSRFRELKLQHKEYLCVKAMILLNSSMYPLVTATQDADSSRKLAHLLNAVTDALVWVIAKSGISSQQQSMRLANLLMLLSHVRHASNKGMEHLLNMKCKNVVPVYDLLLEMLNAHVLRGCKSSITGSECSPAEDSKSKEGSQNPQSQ

[3] = target: T2, Estrogen receptor (Homo sapiens, UniProt P03372);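 also: potency for inhibiting coactivator peptide recruitment to the receptor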
T2 sequence (P03372 whole entry): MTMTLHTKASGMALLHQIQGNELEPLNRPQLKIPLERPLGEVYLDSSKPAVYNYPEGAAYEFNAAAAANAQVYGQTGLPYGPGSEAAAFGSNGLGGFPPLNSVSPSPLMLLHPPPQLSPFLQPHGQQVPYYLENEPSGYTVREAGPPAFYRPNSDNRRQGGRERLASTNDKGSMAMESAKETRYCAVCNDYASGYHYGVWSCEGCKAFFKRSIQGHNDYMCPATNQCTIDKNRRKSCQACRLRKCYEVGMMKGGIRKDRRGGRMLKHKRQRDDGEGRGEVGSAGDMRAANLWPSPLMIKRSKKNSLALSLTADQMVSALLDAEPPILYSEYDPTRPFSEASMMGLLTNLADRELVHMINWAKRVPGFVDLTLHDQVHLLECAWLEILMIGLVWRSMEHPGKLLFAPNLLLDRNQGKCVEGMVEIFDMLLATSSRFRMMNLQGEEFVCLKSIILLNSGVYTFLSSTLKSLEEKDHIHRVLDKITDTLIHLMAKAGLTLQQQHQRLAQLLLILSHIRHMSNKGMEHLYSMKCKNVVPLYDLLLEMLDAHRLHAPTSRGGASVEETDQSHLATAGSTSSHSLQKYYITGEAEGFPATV

[4] = HepG2 cell cytotoxicity, dose response, cytotoxicity control, cherry-picked samples (AID 1159577); type: functional, cell-based
[5] = P. falciparum Dd2 growth inhibitors, dose response, SYBR Green, cherry-picked samples (AID 1159567); type: functional, cell-based
[6] = target: Protein-tyrosine kinase 2-beta (Homo sapiens, UniProt Q14289);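 also: potency of inhibitors of PYK2 kinase phosphorylation of poly-GT substrate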
Protein-tyrosine kinase 2-beta, sequence (Q14289 whole entry): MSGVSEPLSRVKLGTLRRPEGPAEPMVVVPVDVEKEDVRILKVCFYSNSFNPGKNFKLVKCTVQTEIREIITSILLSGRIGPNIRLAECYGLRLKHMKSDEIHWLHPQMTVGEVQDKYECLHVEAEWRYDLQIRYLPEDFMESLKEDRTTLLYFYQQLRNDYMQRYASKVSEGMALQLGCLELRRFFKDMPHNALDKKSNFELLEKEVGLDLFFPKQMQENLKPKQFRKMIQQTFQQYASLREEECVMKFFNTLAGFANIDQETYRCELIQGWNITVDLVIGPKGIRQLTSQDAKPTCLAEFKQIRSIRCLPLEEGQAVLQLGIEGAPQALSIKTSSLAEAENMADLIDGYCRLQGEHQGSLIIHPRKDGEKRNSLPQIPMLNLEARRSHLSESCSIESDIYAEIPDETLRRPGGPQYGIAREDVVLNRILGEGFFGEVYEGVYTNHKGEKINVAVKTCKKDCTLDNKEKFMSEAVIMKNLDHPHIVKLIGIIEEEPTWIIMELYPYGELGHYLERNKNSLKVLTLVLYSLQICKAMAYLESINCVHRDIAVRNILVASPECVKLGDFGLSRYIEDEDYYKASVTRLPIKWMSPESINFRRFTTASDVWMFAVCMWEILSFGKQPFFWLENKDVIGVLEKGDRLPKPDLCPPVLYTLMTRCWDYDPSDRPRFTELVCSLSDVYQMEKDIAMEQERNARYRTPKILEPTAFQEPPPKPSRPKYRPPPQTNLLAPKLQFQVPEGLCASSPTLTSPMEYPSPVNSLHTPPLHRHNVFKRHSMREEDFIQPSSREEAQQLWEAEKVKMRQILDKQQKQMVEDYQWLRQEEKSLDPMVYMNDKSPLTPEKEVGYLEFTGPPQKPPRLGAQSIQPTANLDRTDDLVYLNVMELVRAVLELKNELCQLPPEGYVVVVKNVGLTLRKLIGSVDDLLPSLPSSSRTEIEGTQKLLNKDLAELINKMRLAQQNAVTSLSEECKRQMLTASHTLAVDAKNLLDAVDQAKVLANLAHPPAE

[7] = target: E3 ubiquitin-protein ligase Mdm2 (Homo sapiens, UniProt Q00987); assay: enhancers of MDM2-luciferase reporter signal, concentration-effect titration, project on inhibitors of MDM2 ubiquitin ligase, cellular assay, luminescent readout, 384-well plate format (AID 1394); type: functional;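 also: MDM2 E3 inhibitors raise luminescence so EC50 is for signal enhancement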
E3 ubiquitin-protein ligase Mdm2, sequence (Q00987 whole entry): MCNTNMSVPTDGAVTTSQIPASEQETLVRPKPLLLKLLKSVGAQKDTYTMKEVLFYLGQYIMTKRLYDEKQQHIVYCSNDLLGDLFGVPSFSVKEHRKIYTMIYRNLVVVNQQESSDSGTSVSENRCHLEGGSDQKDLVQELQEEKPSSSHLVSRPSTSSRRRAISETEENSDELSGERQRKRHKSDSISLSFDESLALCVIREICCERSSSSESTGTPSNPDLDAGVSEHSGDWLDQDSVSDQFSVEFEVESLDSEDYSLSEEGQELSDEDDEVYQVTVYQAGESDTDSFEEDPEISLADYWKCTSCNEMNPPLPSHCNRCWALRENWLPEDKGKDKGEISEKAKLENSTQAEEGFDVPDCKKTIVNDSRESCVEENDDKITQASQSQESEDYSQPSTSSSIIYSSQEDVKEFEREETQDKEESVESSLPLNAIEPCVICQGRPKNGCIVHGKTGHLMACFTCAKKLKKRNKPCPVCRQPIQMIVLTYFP

[8] = target: 72 kDa type IV collagenase (Homo sapiens, UniProt P08253); assay: Dose Response validation of uHTS RPN11 inhibitor hits using a MMP-2 Fluorescence assay.; type: functional
72 kDa type IV collagenase, sequence (P08253 whole entry): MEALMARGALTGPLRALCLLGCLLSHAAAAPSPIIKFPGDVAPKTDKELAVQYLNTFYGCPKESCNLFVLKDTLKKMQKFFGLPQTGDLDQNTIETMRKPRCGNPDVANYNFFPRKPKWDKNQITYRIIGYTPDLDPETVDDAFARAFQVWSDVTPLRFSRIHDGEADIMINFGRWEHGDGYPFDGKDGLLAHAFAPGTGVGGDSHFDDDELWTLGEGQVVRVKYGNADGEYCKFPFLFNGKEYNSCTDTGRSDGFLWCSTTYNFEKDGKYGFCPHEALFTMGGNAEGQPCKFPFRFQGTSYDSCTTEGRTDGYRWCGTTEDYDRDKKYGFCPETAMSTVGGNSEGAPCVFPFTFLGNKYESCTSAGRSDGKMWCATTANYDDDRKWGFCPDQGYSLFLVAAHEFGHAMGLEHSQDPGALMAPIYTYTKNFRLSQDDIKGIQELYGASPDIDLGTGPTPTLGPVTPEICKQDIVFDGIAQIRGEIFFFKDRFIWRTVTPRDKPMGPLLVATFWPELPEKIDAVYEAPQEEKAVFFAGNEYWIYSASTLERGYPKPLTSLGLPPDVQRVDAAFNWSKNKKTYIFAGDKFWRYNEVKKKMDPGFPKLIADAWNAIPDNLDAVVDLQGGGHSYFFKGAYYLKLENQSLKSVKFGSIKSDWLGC

[9] = system: H9c2; assay: cells; type: functional, cell-based; settings: Rattus norvegicus, H9c2, Myocardium;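 also: confirmatory concentration-response retest of ultra-high-throughput screening hits for modulation of myocardial damage; cell death induced by hydrogen peroxide oxidative stress; compound pretreatment for 60 min then peroxide exposure for 2 h; potency is for protecting the cells against peroxide damage rather than for killing them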
[10] = target: Prothrombin (Bos taurus, UniProt P00735); assay: thrombin inhibition, dose response, biochemical, fluorescence polarization, uHTS hits (AID 602369); type: functional
[11] = target: 26S proteasome non-ATPase regulatory subunit 14 (Homo sapiens, UniProt O00487); assay: inhibition of proteasome subunit RPN11 – biochemical, fluorescence polarization, uHTS hits, confirmation (AID 602368); type: functional
26S proteasome non-ATPase regulatory subunit 14, sequence (O00487 whole entry): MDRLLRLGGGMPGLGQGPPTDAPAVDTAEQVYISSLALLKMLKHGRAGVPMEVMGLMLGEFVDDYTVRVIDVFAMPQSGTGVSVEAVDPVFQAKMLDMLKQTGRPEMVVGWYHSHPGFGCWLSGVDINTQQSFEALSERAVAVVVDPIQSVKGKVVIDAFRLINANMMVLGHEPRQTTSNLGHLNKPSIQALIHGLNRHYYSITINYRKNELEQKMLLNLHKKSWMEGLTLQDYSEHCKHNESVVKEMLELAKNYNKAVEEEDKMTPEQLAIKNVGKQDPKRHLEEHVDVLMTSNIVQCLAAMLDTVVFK

Structure (SMILES): Cc1cnc(NC(=O)c2c(Cl)cnn2C)s1
- EC50 [1]: 5.87 µM (active)

Structure (SMILES): Cc1ccc(S(=O)(=O)Cc2ccc(C(=O)N3CCC4(CC3)OCCO4)o2)cc1
- IC50 [2]: 12.8 µM (active)
- IC50 [3]: 43 µM (not active)

Structure (SMILES): C[C@H]1CN([C@@H](C)CO)C(=O)c2ccccc2-c2ccccc2CO[C@H]1CN(C)Cc1ccc(C(F)(F)F)cc1
- AC50 [4]: > 42 µM (inactive)
- AC50 [5]: 3.03 µM (active)

Structure (SMILES): C=CCn1c(SCC(=O)N2CCCC2)nc2scc(-c3cccs3)c2c1=O
- IC50 [6]: > 69.5 µM (not active)

Structure (SMILES): CCC(=O)N1CC(=O)N2[C@@H](CO)[C@H](c3ccc(C#CCc4ccccc4)cc3)[C@@H]2C1
- AC50 [4]: 25.2 µM (active)
- AC50 [5]: 11.4 µM (active)

Structure (SMILES): COc1cccc(/C=N/NC(=O)c2[nH]c(C)c(C(=O)N/N=C/c3cccc(OC)c3)c2C)c1
- EC50 [7]: 6.15 µM (not active)
- IC50 [8]: > 100 µM (inactive)
- IC50 [9]: 10.6 µM (active)
- IC50 [10]: > 100 µM (inactive)
- IC50 [11]: 1.41 µM (active)
